Experimental data from patent publication US20150315241A1, “Antibiotic Peptides” (priority 2007, published 2015).
Converted amounts (≈) assume the structure as drawn. Where a SMILES comes first, the peptide text is derived from it. [ ]: non-standard residue; d: D form. The star is where a group is joined. Orn(α-tetramethylguanidino) = CN(C)C(=N[C@@H](CCCN)C(=O)*)N(C)C; Hyp = O=C(O)[C@@H]1C[C@@H](O)CN1; Cha = N[C@@H](CC1CCCCC1)C(=O)O; Cit = NC(=O)NCCC[C@H](N)C(=O)O; Tle = CC(C)(C)[C@H](N)C(=O)O; Ac6c = NC1(C(=O)O)CCCCC1; Orn = NCCC[C@H](N)C(=O)O; βAla = NCCC(=O)O

Columns and labels:
E. coli BL 21 AI = assay: Growth inhibition assay (MIC); assay type: cell-based, Escherichia coli; settings: 1% TSB, 37° C., 20 hrs
Protocol: (§1) The minimal inhibition concentrations (MIC) of the apidaecin-derived peptides and peptide-derivatives were determined by a growth inhibition assay using a serial peptide dilution in sterilized round-bottom 96-well plates (polystyrene, U-bottom, Greiner Bio-One GmbH) with a final volume of 100 μL per well. The bacteria, e.g., E. coli BL21 A1, were grown in nutrient broth (NB, Carl Roth GmbH+Co. KG, Karlsruhe, Germany) at 37° C. over night. To each well of the 96-well plate, 50 μL of the overnight culture adjusted to 5×10^6 CFU/mL in 1% TSB were added. Lyophilized peptides and peptidomimetics were dissolved in 1% TSB (tryptic soy broth) or water to give a final concentration of 250 μg/mL. Fifty μL of the peptide or peptidomimetics solution were added to the first well of a row on the plate and mixed. Fifty μL of the first well containing the peptide solution were transferred to the second well, mixed and again 50 μL transferred to the next well and so on. Thereby, a two-fold dilution series was obtained starting at 250 μg/mL in the first well down to 120 ng/mL in the 12th well of a row giving a final peptide or peptidomimetics concentration from 125 μg/mL (well 1) to 60 ng/mL (well 12). Plates were incubated at 37° C. for 20 hrs. The absorbance was measured at 595 nm using a TECAN micro plate spectrophotometer (Tecan, Germany). All peptides and peptidomimetics were measured in triplicates. Sterilized water was used as a negative control.
(§2) The bacteria strains were tested: • Eschericha coli 1103, 10233, BL 21 AI, DC 2, • Klebsiella pneumoniae 681, • Micrococcus luteus ATCC 10240, • Mycobacterium vaccae • Bactillus subtillis 347.

M. luteus ATCC 10240 = assay type: cell-based, Micrococcus luteus; settings: ATCC 10240, 20 h
Protocol: as §1, §2

| SMILES | MIC E. coli BL 21 AI (E. coli BL 21 AI) | MIC M. luteus ATCC 10240 (M. luteus ATCC 10240) |
| --- | --- | --- |
| CC[C@H](C)[C@H](NC(=O)[C@H](CCCNC(=N)N)NC(=O)[C@@H]1CCCN1C(=O)[C@H](Cc1c[nH]cn1)NC(=O)[C@@H]1CCCN1C(=O)[C@@H]1CCCN1C(=O)[C@H](CCCNC(=N)N)NC(=O)[C@@H]1CCCN1C(=O)[C@H](CCC(N)=O)NC(=O)[C@@H]1CCCN1C(=O)[C@@H](NC(=O)[C@H](Cc1ccc(O)cc1)NC(=O)[C@@H](NC(=O)[C@@H]1CCCN1C(=O)[C@H](CCCNC(=N)N)NC(=O)[C@H](CC(N)=O)NC(=O)[C@H](CC(N)=O)NC(=O)[C@@H](N)CCCN)C(C)C)[C@@H](C)CC)C(N)=O [compound 62] (H-[Orn]NNRPVYIPQPRPPHPRI-NH2) | 1.95 µg/mL (≈ 0.901 µM) | 7.81 µg/mL (≈ 3.61 µM) |
| CC[C@H](C)[C@H](NC(=O)[C@H](CCCNC(=N)N)NC(=O)[C@@H]1CCCN1C(=O)[C@H](Cc1c[nH]cn1)NC(=O)[C@@H]1CCCN1C(=O)[C@@H]1CCCN1C(=O)[C@H](CCCNC(=N)N)NC(=O)[C@@H]1CCCN1C(=O)[C@H](CCC(N)=O)NC(=O)[C@@H]1CCCN1C(=O)[C@@H](NC(=O)[C@H](Cc1ccc(O)cc1)NC(=O)[C@@H](NC(=O)[C@@H]1CCCN1C(=O)[C@H](CCCNC(=N)N)NC(=O)[C@H](CC(N)=O)NC(=O)[C@H](CC(N)=O)NC(=O)[C@H](CCCN)NC(C)=O)C(C)C)[C@@H](C)CC)C(N)=O [compound 63] (Ac-[Orn]NNRPVYIPQPRPPHPRI-NH2) | 3.91 µg/mL (≈ 1.77 µM) | 3.91 µg/mL (≈ 1.77 µM) |
| CC[C@H](C)[C@H](NC(=O)[C@H](Cc1ccc(O)cc1)NC(=O)[C@@H](NC(=O)[C@@H]1CCCN1C(=O)[C@H](CCCNC(=N)N)NC(=O)[C@H](CC(N)=O)NC(=O)[C@H](CC(N)=O)NC(=O)[C@H](CCCN)NC(C)=O)C(C)C)C(=O)N1CCC[C@H]1C(=O)N[C@@H](CCC(N)=O)C(=O)N1CCC[C@H]1C(=O)N[C@@H](CCCNC(=N)N)C(=O)N1CCC[C@H]1C(=O)N1CCC[C@H]1C(=O)N[C@@H](Cc1c[nH]cn1)C(=O)N1CCC[C@H]1C(=O)N[C@@H](CCCNC(=N)N)C(=O)N[C@H](CC(C)C)C(N)=O [compound 72] (Ac-[Orn]NNRPVYIPQPRPPHPR[dL]-NH2) | >125 µg/mL | 7.81 µg/mL (≈ 3.54 µM) |
| CC[C@H](C)[C@H](NC(=O)[C@H](Cc1ccc(O)cc1)NC(=O)[C@@H](NC(=O)[C@@H]1CCCN1C(=O)[C@H](CCCNC(=N)N)NC(=O)[C@H](CC(N)=O)NC(=O)[C@H](CC(N)=O)NC(=O)[C@H](CCCN)NC(C)=O)C(C)C)C(=O)N1CCC[C@H]1C(=O)N[C@@H](CCC(N)=O)C(=O)N1CCC[C@H]1C(=O)N[C@@H](CCCNC(=N)N)C(=O)N1CCC[C@H]1C(=O)N1CCC[C@H]1C(=O)N[C@@H](Cc1c[nH]cn1)C(=O)N1CCC[C@H]1C(=O)N[C@@H](CCCNC(=N)N)C(=O)N[C@H](C(N)=O)C(C)(C)C [compound 73] (Ac-[Orn]NNRPVYIPQPRPPHPR[Tle]-NH2) | 62.5 µg/mL (≈ 28.3 µM) | 7.81 µg/mL (≈ 3.54 µM) |
| CC[C@H](C)[C@H](NC(=O)[C@H](Cc1ccc(O)cc1)NC(=O)[C@@H](NC(=O)[C@@H]1CCCN1C(=O)[C@H](CCCNC(=N)N)NC(=O)[C@H](CC(N)=O)NC(=O)[C@H](CC(N)=O)NC(=O)[C@H](CCCN)NC(C)=O)C(C)C)C(=O)N1CCC[C@H]1C(=O)N[C@@H](CCC(N)=O)C(=O)N1CCC[C@H]1C(=O)N[C@@H](CCCNC(=N)N)C(=O)N1CCC[C@H]1C(=O)N1CCC[C@H]1C(=O)N[C@@H](Cc1c[nH]cn1)C(=O)N1CCC[C@H]1C(=O)N[C@@H](CCCNC(=N)N)C(=O)NCCC(N)=O [compound 74] (Ac-[Orn]NNRPVYIPQPRPPHPR[βAla]-NH2) | >125 µg/mL | 7.81 µg/mL (≈ 3.61 µM) |
| CC[C@H](C)[C@H](NC(=O)[C@H](Cc1ccc(O)cc1)NC(=O)[C@@H](NC(=O)[C@@H]1CCCN1C(=O)[C@H](CCCNC(=N)N)NC(=O)[C@H](CC(N)=O)NC(=O)[C@H](CC(N)=O)NC(=O)[C@H](CCCN)NC(C)=O)C(C)C)C(=O)N1CCC[C@H]1C(=O)N[C@@H](CCC(N)=O)C(=O)N1CCC[C@H]1C(=O)N[C@@H](CCCNC(=N)N)C(=O)N1CCC[C@H]1C(=O)N1CCC[C@H]1C(=O)N[C@@H](Cc1c[nH]cn1)C(=O)N1CCC[C@H]1C(=O)N[C@@H](CCCNC(=N)N)C(=O)NC1(C(N)=O)CCCCC1 [compound 75] (Ac-[Orn]NNRPVYIPQPRPPHPR[Ac6c]-NH2) | >125 µg/mL | 7.81 µg/mL (≈ 3.52 µM) |
| CC[C@H](C)[C@H](NC(=O)[C@H](Cc1ccc(O)cc1)NC(=O)[C@@H](NC(=O)[C@@H]1CCCN1C(=O)[C@H](CCCNC(=N)N)NC(=O)[C@H](CC(N)=O)NC(=O)[C@H](CC(N)=O)NC(=O)CN)C(C)C)C(=O)N1CCC[C@H]1C(=O)N[C@@H](CCC(N)=O)C(=O)N1CCC[C@H]1C(=O)N[C@@H](CCCNC(=N)N)C(=O)N1CCC[C@H]1C(=O)N1CCC[C@H]1C(=O)N[C@@H](Cc1c[nH]cn1)C(=O)N1CCC[C@H]1C(=O)N[C@@H](CCCNC(=N)N)C(=O)N[C@@H](CC1CCCCC1)C(N)=O [compound 76] (H-GNNRPVYIPQPRPPHPR[Cha]-NH2) | 62.5 µg/mL (≈ 29.1 µM) | 15.63 µg/mL (≈ 7.28 µM) |
| CC[C@H](C)[C@H](NC(=O)[C@H](Cc1ccc(O)cc1)NC(=O)[C@@H](NC(=O)[C@@H]1CCCN1C(=O)[C@H](CCCNC(=N)N)NC(=O)[C@H](CC(N)=O)NC(=O)[C@H](CC(N)=O)NC(=O)CN)C(C)C)C(=O)N1CCC[C@H]1C(=O)N[C@@H](CCC(N)=O)C(=O)N1CCC[C@H]1C(=O)N[C@@H](CCCNC(=N)N)C(=O)N1CCC[C@H]1C(=O)N1CCC[C@H]1C(=O)N[C@@H](Cc1c[nH]cn1)C(=O)N1CCC[C@H]1C(=O)N[C@@H](CCCNC(=N)N)C(=O)N[C@H](CC(C)C)C(N)=O [compound 77] (H-GNNRPVYIPQPRPPHPR[dL]-NH2) | >125 µg/mL | 31.25 µg/mL (≈ 14.8 µM) |
| CC[C@H](C)[C@H](NC(=O)[C@H](Cc1ccc(O)cc1)NC(=O)[C@@H](NC(=O)[C@@H]1CCCN1C(=O)[C@H](CCCNC(=N)N)NC(=O)[C@H](CC(N)=O)NC(=O)[C@H](CC(N)=O)NC(=O)CN)C(C)C)C(=O)N1CCC[C@H]1C(=O)N[C@@H](CCC(N)=O)C(=O)N1CCC[C@H]1C(=O)N[C@@H](CCCNC(=N)N)C(=O)N1CCC[C@H]1C(=O)N1CCC[C@H]1C(=O)N[C@@H](Cc1c[nH]cn1)C(=O)N1CCC[C@H]1C(=O)N[C@@H](CCCNC(=N)N)C(=O)N[C@H](C(N)=O)C(C)(C)C [compound 78] (H-GNNRPVYIPQPRPPHPR[Tle]-NH2) |  | 31.25 µg/mL (≈ 14.8 µM) |
| CC[C@H](C)[C@H](NC(=O)[C@H](Cc1ccc(O)cc1)NC(=O)[C@@H](NC(=O)[C@@H]1CCCN1C(=O)[C@H](CCCNC(=N)N)NC(=O)[C@H](CC(N)=O)NC(=O)[C@H](CC(N)=O)NC(=O)CN)C(C)C)C(=O)N1CCC[C@H]1C(=O)N[C@@H](CCC(N)=O)C(=O)N1CCC[C@H]1C(=O)N[C@@H](CCCNC(=N)N)C(=O)N1CCC[C@H]1C(=O)N1CCC[C@H]1C(=O)N[C@@H](Cc1c[nH]cn1)C(=O)N1CCC[C@H]1C(=O)N[C@@H](CCCNC(=N)N)C(=O)NCCC(N)=O [compound 79] (H-GNNRPVYIPQPRPPHPR[βAla]-NH2) | >125 µg/mL | 62.5 µg/mL (≈ 30.3 µM) |
| CC[C@H](C)[C@H](NC(=O)[C@H](Cc1ccc(O)cc1)NC(=O)[C@@H](NC(=O)[C@@H]1CCCN1C(=O)[C@H](CCCNC(=N)N)NC(=O)[C@H](CC(N)=O)NC(=O)[C@H](CC(N)=O)NC(=O)CN)C(C)C)C(=O)N1CCC[C@H]1C(=O)N[C@@H](CCC(N)=O)C(=O)N1CCC[C@H]1C(=O)N[C@@H](CCCNC(=N)N)C(=O)N1CCC[C@H]1C(=O)N1CCC[C@H]1C(=O)N[C@@H](Cc1c[nH]cn1)C(=O)N1CCC[C@H]1C(=O)N[C@@H](CCCNC(=N)N)C(=O)NC1(C(N)=O)CCCCC1 [compound 80] (H-GNNRPVYIPQPRPPHPR[Ac6c]-NH2) | >125 µg/mL | 15.63 µg/mL (≈ 7.37 µM) |
| CC[C@H](C)[C@H](NC(=O)[C@H](CCCNC(=N)N)NC(=O)[C@@H]1CCCN1C(=O)[C@H](Cc1c[nH]cn1)NC(=O)[C@@H]1CCCN1C(=O)[C@@H]1CCCN1C(=O)[C@H](CCCNC(=N)N)NC(=O)[C@@H]1C[C@@H](O)CN1C(=O)[C@H](CCCNC(=N)N)NC(=O)[C@@H]1CCCN1C(=O)[C@@H](NC(=O)[C@H](Cc1ccc(O)cc1)NC(=O)[C@@H](NC(=O)[C@@H]1CCCN1C(=O)[C@H](CCCNC(=N)N)NC(=O)[C@H](CC(N)=O)NC(=O)[C@H](CC(N)=O)NC(=O)CN)C(C)C)[C@@H](C)CC)C(N)=O [compound 90] (H-GNNRPVYIPR[Hyp]RPPHPRI-NH2) |  | 7.81 µg/mL (≈ 3.63 µM) |
| CC[C@H](C)[C@H](NC(=O)[C@H](Cc1ccc(O)cc1)NC(=O)[C@@H](NC(=O)[C@@H]1CCCN1C(=O)[C@H](CCCNC(=N)N)NC(=O)[C@H](CC(N)=O)NC(=O)[C@H](CC(N)=O)NC(=O)[C@H](CCCN)N=C(N(C)C)N(C)C)C(C)C)C(=O)N1CCC[C@H]1C(=O)N[C@@H](CCCNC(=N)N)C(=O)N1CCC[C@H]1C(=O)N[C@@H](CCCNC(=N)N)C(=O)N1CCC[C@H]1C(=O)N1CCC[C@H]1C(=O)N[C@@H](Cc1c[nH]cn1)C(=O)N1CCC[C@H]1C(=O)N[C@@H](CCCNC(N)=O)C(=O)N[C@@H](CC(C)C)C(N)=O [compound 151] ({Orn(α-tetramethylguanidino)}-NNRPVYIPRPRPPHP[Cit]L-NH2; N-terminus and C-terminus assumed) |  | 64 µg/mL (≈ 27.9 µM) |
